Measured values reported in PubChem BioAssay AID2060612 (Molecular Pharmacology Branch, DTP, NCI, 2025).

System: 565232-114-T-J1-PDC complex spheroid viability
Assay: Anticancer human tumor 565232-114-T-J1-PDC patient-derived bladder carcinoma cell line growth inhibition [CLK]
Details: for viability, T/C: stronger effect = lower value
Method in brief: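 Multi-cell-type spheroids combined patient-derived tumor cells with HUVEC endothelial cells and human mesenchymal stem cells. Paired agents were dosed in half-log steps down from about clinical Cmax, or from 10 microM where Cmax was unknown.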
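Further: spheroids exposed to compounds for 7 days before readout.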
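Wherever viability, T/C is given: 100% = DMSO vehicle wells with luminescence normalized to vehicle control.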

Compound: O=C(c1cc(Cc2n[nH]c(=O)c3ccccc23)ccc1F)N1CCN(C(=O)C2CC2)CC1 + CN1CCN(c2cc(C(=O)Nc3cc4cc(-c5cnn(C)c5)ccc4cn3)ccn2)CC1
- IC50 (curve of first compound, second compound 0.0316 µM): > 10 µM
- IC50 (curve of first compound, second compound 0.1 µM): > 10 µM
- IC50 (curve of first compound, second compound 0.316 µM): < 0.0316 µM
- IC50 (curve of first compound, second compound 1 µM): < 0.0316 µM
- IC50 (curve of first compound, second compound 3.16 µM): < 0.0316 µM
- IC50 (curve of first compound, second compound 10 µM): < 0.0316 µM
- viability, T/C (second compound 0.0316 µM, first compound 0.0316 µM): 110%
- viability, T/C (second compound 0.0316 µM, first compound 0.1 µM): 117%
- viability, T/C (second compound 0.0316 µM, first compound 0.316 µM): 109%
- viability, T/C (second compound 0.0316 µM, first compound 1 µM): 94.4%
- viability, T/C (second compound 0.0316 µM, first compound 3.16 µM): 128%
- viability, T/C (second compound 0.0316 µM, first compound 10 µM): 130%
- viability, T/C (second compound 0.1 µM, first compound 0.0316 µM): 122%
- viability, T/C (second compound 0.1 µM, first compound 0.1 µM): 106%
- viability, T/C (second compound 0.1 µM, first compound 0.316 µM): 139%
- viability, T/C (second compound 0.1 µM, first compound 1 µM): 115%
- viability, T/C (second compound 0.1 µM, first compound 3.16 µM): 148%
- viability, T/C (second compound 0.1 µM, first compound 10 µM): 108%
- viability, T/C (second compound 0.316 µM, first compound 0.0316 µM): 23.3%
- viability, T/C (second compound 0.316 µM, first compound 0.1 µM): 22.6%
- viability, T/C (second compound 0.316 µM, first compound 0.316 µM): 24.8%
- viability, T/C (second compound 0.316 µM, first compound 1 µM): 20.1%
- viability, T/C (second compound 0.316 µM, first compound 3.16 µM): 19.8%
- viability, T/C (second compound 0.316 µM, first compound 10 µM): 16%
- viability, T/C (second compound 1 µM, first compound 0.0316 µM): 0.19%
- viability, T/C (second compound 1 µM, first compound 0.1 µM): 1.21%
- viability, T/C (second compound 1 µM, first compound 0.316 µM): 0.25%
- viability, T/C (second compound 1 µM, first compound 1 µM): 0.17%
- viability, T/C (second compound 1 µM, first compound 3.16 µM): 0.18%
- viability, T/C (second compound 1 µM, first compound 10 µM): 0.19%
- viability, T/C (second compound 3.16 µM, first compound 0.0316 µM): 0.15%
- viability, T/C (second compound 3.16 µM, first compound 0.1 µM): 0.29%
- viability, T/C (second compound 3.16 µM, first compound 0.316 µM): 1.69%
- viability, T/C (second compound 3.16 µM, first compound 1 µM): 0.26%
- viability, T/C (second compound 3.16 µM, first compound 3.16 µM): 2.21%
- viability, T/C (second compound 3.16 µM, first compound 10 µM): 4.24%
- viability, T/C (second compound 10 µM, first compound 0.0316 µM): 1.42%
- viability, T/C (second compound 10 µM, first compound 0.1 µM): 0.19%
- viability, T/C (second compound 10 µM, first compound 0.316 µM): 3.03%
- viability, T/C (second compound 10 µM, first compound 1 µM): 0.19%
- viability, T/C (second compound 10 µM, first compound 3.16 µM): 0.25%
- viability, T/C (second compound 10 µM, first compound 10 µM): 0.28%

Compound: CN1CCN(c2cc(C(=O)Nc3cc4cc(-c5cnn(C)c5)ccc4cn3)ccn2)CC1
- viability, T/C (compound 0.0316 µM): 97.6% [middle of 9 runs]
- viability, T/C (compound 0.1 µM): 106% [middle of 9 runs]
- viability, T/C (compound 0.316 µM): 19.9% [middle of 9 runs]
- viability, T/C (compound 1 µM): 1.63% [middle of 9 runs]
- viability, T/C (compound 3.16 µM): 0.86% [middle of 9 runs]
- viability, T/C (compound 10 µM): 0.47% [middle of 9 runs]
- IC50 (compound alone, run of 07/31/2023): 212 nM [middle of 8 runs]
